pIC50: −log10 of the molar value.
How the values were obtained:
HT-29 [1] = test: Cytotoxicity against human HT-29 cells after 72 hrs by MTT assay; assay type: functional; conditions: HT-29, 72 h
SW480 [2] = test: Cytotoxicity against human SW480 cells after 72 hrs by MTT assay; assay type: functional; conditions: SW480, 72 h
MCF7 [3] = test: Cytotoxicity against human MCF7 cells after 72 hrs by MTT assay; assay type: functional; conditions: MCF7, 72 h
A2780 [4] = test: Cytotoxicity against human A2780 cells after 72 hrs by MTT assay; assay type: functional; conditions: A2780, 72 h
NCI-H460 [5] = test: Cytotoxicity against human H460 cells after 72 hrs by MTT assay; assay type: functional; conditions: NCI-H460, 72 h
A-431 [6] = test: Cytotoxicity against human A431 cells after 72 hrs by MTT assay; assay type: functional; conditions: A-431, 72 h
DU-145 [7] = test: Cytotoxicity against human DU145 cells after 72 hrs by MTT assay; assay type: functional; conditions: DU-145, 72 h
[8] = Cytotoxicity against human BE(2)-C cells after 72 hrs by MTT assay; assay type: functional
[9] = Cytotoxicity against human SJ-G2 cells after 72 hrs by MTT assay; assay type: functional; conditions: SJ-G2, 72 h
[10] = Inhibition of rabbit skeletal muscle protein phosphatase 1 assessed as free phosphate ion release after 60 mins by malachite green method; parameters: species or system Oryctolagus cuniculus
[11] = Inhibition of human red blood cells protein phosphatase 2A assessed as free phosphate ion release after 60 mins by malachite green method
HT-29 [12] = test: Cytotoxicity against human HT-29 cells at 100 uM after 72 hrs by MTT assay; assay type: functional; conditions: HT-29, 72 h
SW480 [13] = test: Cytotoxicity against human SW480 cells at 100 uM after 72 hrs by MTT assay; assay type: functional; conditions: SW480, 72 h
MCF7 [14] = test: Cytotoxicity against human MCF7 cells at 100 uM after 72 hrs by MTT assay; assay type: functional; conditions: MCF7, 72 h
A2780 [15] = test: Cytotoxicity against human A2780 cells at 100 uM after 72 hrs by MTT assay; assay type: functional; conditions: A2780, 72 h
NCI-H460 [16] = test: Cytotoxicity against human H460 cells at 100 uM after 72 hrs by MTT assay; assay type: functional; conditions: NCI-H460, 72 h
A-431 [17] = test: Cytotoxicity against human A431 cells at 100 uM after 72 hrs by MTT assay; assay type: functional; conditions: A-431, 72 h
DU-145 [18] = test: Cytotoxicity against human DU145 cells at 100 uM after 72 hrs by MTT assay; assay type: functional; conditions: DU-145, 72 h
[19] = Cytotoxicity against human BE(2)-C cells at 100 uM after 72 hrs by MTT assay; assay type: functional
[20] = Cytotoxicity against human SJ-G2 cells at 100 uM after 72 hrs by MTT assay; assay type: functional; conditions: SJ-G2, 72 h
[21] = Solubility of the compound; assay type: physicochemical

| SMILES | inhibition at 100 µM (HT-29 [12]) [%] | inhibition at 100 µM (SW480 [13]) [%] | inhibition at 100 µM (MCF7 [14]) [%] | inhibition at 100 µM (A2780 [15]) [%] | inhibition at 100 µM (NCI-H460 [16]) [%] | inhibition at 100 µM (A-431 [17]) [%] | inhibition at 100 µM (DU-145 [18]) [%] | inhibition at 100 µM [19] [%] | inhibition at 100 µM [20] [%] | also measured |
| --- | --- | --- | --- | --- | --- | --- | --- | --- | --- | --- |
| O=C1OC(=O)C2C3CCC(O3)C12 (stereo unspecified) | – | – | – | – | – | – | – | – | – | GI50 (HT-29 [1]): 57 µM; GI50 (SW480 [2]): 44 µM; GI50 (MCF7 [3]): 68 µM; GI50 (A2780 [4]): 38 µM; GI50 (NCI-H460 [5]): 45 µM; GI50 (A-431 [6]): 31 µM; GI50 (DU-145 [7]): 28 µM; GI50 [8]: 43 µM; GI50 [9]: 23 µM; pIC50 [10]: 5.11; pIC50 [11]: 5.57 |
| NCC[C@@H](C(=O)O)N1C(=O)[C@H]2CNC[C@H]2C1=O | < 10 | < 10 | < 10 | < 10 | < 10 | < 10 | < 10 | < 10 | < 10 | – |
| O=C(O)[C@H](Cc1c[nH]cn1)N1C(=O)[C@H]2COC[C@H]2C1=O | 26 | 18 | 20 | 23 | 21 | 26 | 11 | 22 | 15 | – |
| O=C1OC(=O)[C@@H]2CSC[C@H]12 | – | – | – | – | – | – | – | – | – | solubility [21]: Insoluble; pIC50 [10]: < 4.00; pIC50 [11]: < 4.00 |
| CN(C)CCNC(=O)[C@@H]1CNC[C@@H]1C(=O)O | – | – | – | – | – | – | – | – | – | solubility [21]: Insoluble |
| O=C(O)[C@H](Cc1c[nH]cn1)N1C(=O)[C@H]2CSC[C@H]2C1=O | 10 | < 10 | 15 | < 10 | 10 | < 10 | < 10 | 14 | < 10 | – |
| O=C(O)C[C@@H](C(=O)O)N1C(=O)[C@H]2COC[C@H]2C1=O | 14 | < 10 | 13 | 15 | < 10 | < 10 | < 10 | < 10 | < 10 | – |
| NCCC[C@@H](C(=O)O)N1C(=O)[C@H]2CNC[C@H]2C1=O | 12 | 11 | 22 | 11 | 16 | 16 | < 10 | 23 | < 10 | – |
| O=C1[C@H]2CN(Cc3ccccc3)C[C@H]2C(=O)N1CCN1CCOCC1 | 45 | 49 | 51 | 33 | < 10 | 11 | 25 | 12 | 25 | – |
| O=C1[C@H]2CNC[C@H]2C(=O)N1N1CCOCC1 | – | – | – | – | – | – | – | – | – | solubility [21]: Insoluble |
| CC(CO)N1C(=O)[C@H]2CN(Cc3ccccc3)C[C@H]2C1=O (stereo partly specified) | 15 | 12 | 22 | 21 | 14 | < 10 | 10 | 10 | 18 | – |
| CCC(CO)N1C(=O)[C@H]2CNC[C@H]2C1=O (stereo partly specified) | < 10 | < 10 | < 10 | < 10 | < 10 | < 10 | < 10 | < 10 | < 10 | – |
| CCC(CO)N1C(=O)[C@H]2CN(Cc3ccccc3)C[C@H]2C1=O (stereo partly specified) | 14 | 15 | < 10 | 15 | < 10 | < 10 | < 10 | < 10 | < 10 | – |
| CC(CO)N1C(=O)[C@H]2CNC[C@H]2C1=O (stereo partly specified) | 15 | < 10 | < 10 | < 10 | < 10 | < 10 | < 10 | < 10 | < 10 | – |
| CCOC(=O)C[C@@H](C(=O)OCC)N1C(=O)[C@H]2CNC[C@H]2C1=O | 15 | < 10 | 15 | 14 | < 10 | < 10 | < 10 | < 10 | < 10 | – |
| O=C1[C@H]2COC[C@H]2C(=O)N1CCN1CCOCC1 | < 10 | < 10 | < 10 | 13 | < 10 | < 10 | < 10 | < 10 | < 10 | – |
| NCCC[C@@H](C(=O)O)N1C(=O)[C@H]2COC[C@H]2C1=O | < 10 | < 10 | < 10 | < 10 | < 10 | 10 | < 10 | < 10 | 32 | – |
| O=C(O)[C@H](Cc1c[nH]cn1)N1C(=O)[C@H]2CNC[C@H]2C1=O | 10 | < 10 | < 10 | < 10 | < 10 | < 10 | < 10 | < 10 | < 10 | – |
| CC(CO)N1C(=O)[C@H]2COC[C@H]2C1=O (stereo partly specified) | < 10 | < 10 | < 10 | 13 | 10 | < 10 | < 10 | < 10 | < 10 | – |
| CCOC(=O)CC[C@@H](C(=O)OCC)N1C(=O)[C@H]2COC[C@H]2C1=O | 30 | 34 | 28 | 29 | 13 | 13 | 20 | < 10 | < 10 | – |
| NCCCC[C@@H](C(=O)O)N1C(=O)[C@H]2CSC[C@H]2C1=O | 22 | < 10 | 30 | 16 | 19 | 19 | < 10 | 22 | 10 | – |
| O=C1[C@H]2CNC[C@H]2C(=O)N1CCN1CCOCC1 | < 10 | < 10 | 11 | < 10 | < 10 | 10 | < 10 | < 10 | < 10 | – |
| CCC(CO)N1C(=O)[C@H]2COC[C@H]2C1=O (stereo partly specified) | < 10 | < 10 | < 10 | 13 | < 10 | < 10 | < 10 | < 10 | < 10 | – |
| CCCN1C(=O)[C@H]2CNC[C@H]2C1=O | – | – | – | – | – | – | – | – | – | solubility [21]: Insoluble |
| C[C@@]12C(=O)OC(=O)[C@]1(C)[C@H]1CC[C@@H]2O1 [CANTHARIDIN] | – | – | – | – | – | – | – | – | – | GI50 (HT-29 [1]): 3.2 µM; GI50 (SW480 [2]): 4.5 µM; GI50 (MCF7 [3]): 7.5 µM; GI50 (A2780 [4]): 4.4 µM; GI50 (NCI-H460 [5]): 3.3 µM; GI50 (A-431 [6]): 2.9 µM; GI50 (DU-145 [7]): 2.1 µM; GI50 [8]: 3.7 µM; GI50 [9]: 1.7 µM; pIC50 [10]: 5.22; pIC50 [11]: 6.05 |
| CCOC(=O)C[C@@H](C(=O)OCC)N1C(=O)[C@H]2COC[C@H]2C1=O | 16 | < 10 | 16 | 15 | < 10 | < 10 | < 10 | < 10 | < 10 | – |
| CCC(CO)N1C(=O)[C@H]2CSC[C@H]2C1=O (stereo partly specified) | < 10 | < 10 | < 10 | < 10 | < 10 | < 10 | < 10 | < 10 | < 10 | – |
| NCCCC[C@@H](C(=O)O)N1C(=O)[C@H]2COC[C@H]2C1=O | 30 | 30 | 37 | 31 | 27 | 35 | 17 | 32 | 23 | – |

Source: ChEMBL document CHEMBL1157873, “Synthesis and biological activity of Delta-5,6-norcantharimides: importance of the 5,6-bridge” (Eur J Med Chem, 2010)
